Consider 22 molecules from US11325900B2, “5-(pyrimidin-4-yl)thiazol-2-yl urea derivatives as therapeutic agents” (AUCENTRA HOLDINGS PTY LTD, priority 2018, dated 2022).

The test system of test [1] is acute myeloid leukaemia (AML) cell lines. The conditions noted are these: background; cited from earlier work.
The test system of test [2] is mouse model of AML. The conditions noted are these: background; cited from earlier work.
Test [3] deals with T1, CDK8/CycC (Homo sapiens, UniProt P49336).
T1 construct: purchased ProQinase GmbH, Freiburg, Germany
T1 sequence (P49336 whole entry): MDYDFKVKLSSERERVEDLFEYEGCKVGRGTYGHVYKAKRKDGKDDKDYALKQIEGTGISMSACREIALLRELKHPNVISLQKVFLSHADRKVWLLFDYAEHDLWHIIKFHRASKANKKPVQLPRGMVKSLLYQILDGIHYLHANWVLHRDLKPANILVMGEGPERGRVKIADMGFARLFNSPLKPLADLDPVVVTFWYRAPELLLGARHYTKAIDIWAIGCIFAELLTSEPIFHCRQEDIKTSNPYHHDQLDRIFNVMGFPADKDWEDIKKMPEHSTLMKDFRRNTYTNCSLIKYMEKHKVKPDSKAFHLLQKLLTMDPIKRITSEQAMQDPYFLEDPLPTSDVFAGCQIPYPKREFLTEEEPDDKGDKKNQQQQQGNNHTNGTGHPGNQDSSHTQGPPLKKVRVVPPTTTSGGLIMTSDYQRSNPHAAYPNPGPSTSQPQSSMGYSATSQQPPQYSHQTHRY
T1 sequence (P24863 whole entry partner): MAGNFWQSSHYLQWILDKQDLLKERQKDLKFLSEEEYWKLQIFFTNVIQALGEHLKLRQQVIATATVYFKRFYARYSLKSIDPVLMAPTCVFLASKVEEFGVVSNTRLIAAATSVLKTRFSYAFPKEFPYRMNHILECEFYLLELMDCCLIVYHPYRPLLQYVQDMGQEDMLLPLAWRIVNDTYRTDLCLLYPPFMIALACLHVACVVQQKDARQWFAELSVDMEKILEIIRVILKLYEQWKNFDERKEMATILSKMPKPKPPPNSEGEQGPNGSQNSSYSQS
In words: Radiometric protein kinase assay (33PanQinase Activity Assay, ProQinase). The class given is biochemical. As to conditions: 1.0 μM ATP, 1.0 μg/50 μL substrate RBER-IRStide, duplicate measurements, read-out: CDK8 Kinase inhibition IC50. The method in brief: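 33P radiometric kinase assay on CDK8/CycC with 1.0 μM ATP and 1.0 μg/50 μL RBER-IRStide substrate. IC50 values came from duplicate measurements. Ki was calculated from IC50 and Km(ATP).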

The subject of test [4] is MV-4-11. In words: Cell viability assay (resazurin, leukemia cell lines), 72 h growth inhibition. The class given is cell-based. The conditions noted are these: Homo sapiens, MV4-11, MV-4-11 cells. An excerpt: (§1) Compounds from Example 1 may be subjected to a standard MTT (3-(4,5-dimethylthiazol-2-yl)-2,5-diphenyltetrazolium bromide) and resazurin assays on solid tumour cell lines and leukemia cell lines, respectively, as previously reported (Wang S et al., J Med Chem 47:1662-1675, 2004 and Diab S e al. CheMedChem 9:962-972, 2014). Compound concentrations required to inhibit 50% of cell growth (GI50) can be calculated using non-linear regression analysis.
For orientation: Alamar Blue is a resazurin reagent that responds to reducing activity.

Test [5] concerns HCT-116. In words: Cell viability assay (MTT, solid tumour cell lines), 72 h growth inhibition. The class given is cell-based. As to conditions: Homo sapiens, HCT-116 cells.
From the text: as §1

For cortistatin A, the “Suppression of cell growth (in words)” value in test [1] is “suppress cell growth”. Moreover, in test [2], the “Anticancer activity (in words)” value is given as “shows anticancer activity”.
The term IC50 denotes the point on the concentration scale where inhibition reaches its midpoint. The GI50 is the concentration at which growth is held to half of that of the control. In the case of `CNc1nccc(-c2sc(NC(=O)Nc3ccccc3OC)nc2C)n1` [Compound 4, 1-(2-Methoxyphenyl)-3-(4-methyl-5-(2-(methylamino)pyrimidin-4-yl)thiazol-2-yl)urea], in test [3], the half-maximal inhibitory concentration (IC50) came out at 49 nM. For the same molecule, the GI50 in test [4] was determined as 457 ± 180 nM; in test [5], 0.537 ± 0.14 µM.
For `Cc1nc(NC(=O)Nc2cccc(C(F)(F)F)c2)sc1-c1ccnc(N(C)C)n1` [Compound 46, 1-(5-(2-(Dimethylamino)pyrimidin-4-yl)-4-methylthiazol-2-yl)-3-(3-(trifluoromethyl)phenyl)urea], the half-maximal inhibitory concentration (IC50) in test [3] is 41 nM. For the same molecule, the GI50 turned out to be 5500 ± 490 nM in test [4] and 35 ± 11.8 µM in test [5].
With `CNc1nccc(-c2sc(NC(=O)Nc3cccc(OC(F)F)c3)nc2C)n1` [Compound 20, 1-(3-(Difluoromethoxy)phenyl)-3-(4-methyl-5-(2-(methylamino)-pyrimidin-4-yl)thiazol-2-yl)urea], the IC50 in test [3] was 6 nM. The concentration for 50% growth inhibition (GI50) in test [4] is 939 ± 60 nM; in test [5] it was 4.53 ± 0.98 µM.
As to `CNc1nccc(-c2sc(NC(=O)Nc3cccc(SC)c3)nc2C)n1` [Compound 21, 1-(4-Methyl-5-(2-(methylamino)-pyrimidin-4-yl)thiazol-2-yl)-3-(3-(methylthio)phenyl)urea], the IC50 in test [3] was found to be 9 nM. Further, the 50% growth inhibitory concentration (GI50) in test [4] turned out to be 3350 ± 190 nM; in test [5], 6.13 ± 0.91 µM.
`CNc1nccc(-c2sc(NC(=O)Nc3cccc(C)c3)nc2C)n1` [Compound 13, 1-(4-Methyl-5-(2-(methylamino)pyrimidin-4-yl)thiazol-2-yl)-3-(m-tolyl)urea]: the IC50 in test [3] stood at 6 nM. Also, the values for the 50% growth inhibitory concentration (GI50) in test [4] and in test [5] were 3900 ± 1100 nM and 2.77 ± 0.21 µM, respectively.
`CNc1nccc(-c2sc(NC(=O)Nc3ccccc3F)nc2C)n1` [Compound 3, 1-(2-Fluorophenyl)-3-(4-methyl-5-(2-(methylamino)pyrimidin-4-yl)thiazol-2-yl)urea]: in test [3], the 50% inhibitory concentration (IC50) is 42 nM. Further, the concentration for 50% growth inhibition (GI50) in test [4] was determined as 952 ± 200 nM; in test [5], 1.59 ± 0.06 µM.
Turning to `CNc1nccc(-c2sc(NC(=O)Nc3cccc(C#N)c3)nc2C)n1` [Compound 15, 1-(3-Cyanophenyl)-3-(4-methyl-5-(2-(methylamino)pyrimidin-4-yl)thiazol-2-yl)urea], in test [3], the half-maximal inhibitory concentration (IC50) came out at 8 nM. Besides, the concentration for 50% growth inhibition (GI50) is 565 ± 40 nM in test [4] and 6.25 ± 0.61 µM in test [5].
On to `CNc1nccc(-c2sc(NC(=O)Nc3ccc(C(F)(F)F)c(C(F)(F)F)c3)nc2C)n1` [Compound 27, 1-(3,4-Bis(trifluoromethyl)phenyl)-3-(4-methyl-5-(2-(methylamino)-pyrimidin-4-yl)thiazol-2-yl)urea], for which the half-inhibitory concentration (IC50) in test [3] turned out to be 53 nM. Moreover, the GI50 in test [4] amounted to 4160 ± 800 nM; in test [5], 5.64 ± 0.32 µM.
Turning to `CNc1nccc(-c2sc(NC(=O)Nc3cccc(S(=O)(=O)C(F)(F)F)c3)nc2C)n1` [Compound 23, 1-(4-Methyl-5-(2-(methylamino)pyrimidin-4-yl)-thiazol-2-yl)-3-(3-((trifluoromethyl)-sulfonyl)phenyl)urea], the concentration for half-maximal inhibition (IC50) in test [3] came out at 26 nM. Moreover, the values for the GI50 in test [4] and in test [5] were 3170 ± 530 nM and 4.96 ± 0.12 µM, respectively.
In the case of `CNc1nccc(-c2sc(NC(=O)Nc3ccc(C)c(Cl)c3)nc2C)n1` [Compound 29, 1-(3-Chloro-4-methylphenyl)-3-(4-methyl-5-(2-(methylamino)-pyrimidin-4-yl)thiazol-2-yl)urea], the half-maximal inhibitory concentration (IC50) in test [3] was 13 nM. Moreover, the GI50 in test [4] came to 2160 ± 1170 nM; in test [5] it was 7.77 ± 0.43 µM.
On to `CNc1nccc(-c2sc(NC(=O)Nc3ccc(C(F)(F)F)c(F)c3)nc2C)n1` [Compound 28, 1-(3-Fluoro-4-(trifluoromethyl)phenyl)-3-(4-methyl-5-(2-(methylamino)-pyrimidin-4-yl)thiazol-2-yl)urea], for which the 50% inhibitory concentration (IC50) in test [3] was 26 nM. Further, the concentration for 50% growth inhibition (GI50) was found to be 3280 ± 640 nM in test [4] and 0.772 ± 0.25 µM in test [5].
For `CNc1nccc(-c2sc(NC(=O)Nc3cccc(OC(F)(F)F)c3)nc2C)n1` [Compound 18, 1-(4-Methyl-5-(2-(methylamino)-pyrimidin-4-yl)thiazol-2-yl)-3-(3-(trifluoromethoxy)phenyl)urea], in test [3], the IC50 is 25 nM. Also, the GI50 in test [4] is 5000 ± 630 nM; in test [5], 4.29 ± 0.523 µM.
With `CNc1nccc(-c2sc(NC(=O)Nc3ccc(OC)cc3)nc2C)n1` [Compound 45, 1-(4-Methoxyphenyl)-3-(4-methyl-5-(2-(methylamino)pyrimidin-4-yl)thiazol-2-yl)urea], in test [3], the IC50 was 11 nM. The values for the GI50 in test [4] and in test [5] were 756 ± 120 nM and 3.04 ± 0.53 µM, respectively.
`CNc1nccc(-c2sc(NC(=O)Nc3cccc(Br)c3)nc2C)n1` [Compound 12, 1-(3-Bromophenyl)-3-(4-methyl-5-(2-(methylamino)pyrimidin-4-yl)thiazol-2-yl)urea]: the IC50 in test [3] is 7 nM. Also, the concentration for 50% growth inhibition (GI50) in test [4] worked out at 2110 ± 1640 nM; in test [5], 6.41 ± 0.27 µM.
For the molecule `CNc1nccc(-c2sc(NC(=O)Nc3ccc(CN4CCOCC4)c(C(F)(F)F)c3)nc2C)n1` [Compound 37, 1-(4-Methyl-5-(2-(methylamino)-pyrimidin-4-yl)thiazol-2-yl)-3-(4-(morpholinomethyl)-3-(trifluoromethyl)phenyl)urea], the IC50 in test [3] is 9 nM. Moreover, the 50% growth inhibitory concentration (GI50) was found to be 68 ± 30 nM in test [4] and 7.84 ± 0.39 µM in test [5].
Taken in the same sequence, the figures for `CNc1nccc(-c2sc(NC(=O)Nc3cccc(C(F)(F)F)c3)nc2C)n1` [Compound 10, 1-(4-Methyl-5-(2-(methylamino)-pyrimidin-4-yl)thiazol-2-yl)-3-(3-(trifluoromethyl)phenyl)urea] were 10 nM, 870 ± 360 nM and 0.51 ± 0.03 µM.
Taken in the same sequence, the figures for `Cc1ccc(NC(=O)Nc2nc(C)c(-c3ccnc(N(C)C)n3)s2)cc1Cl` [Compound 48, 1-(3-Chloro-4-methylphenyl)-3-(5-(2-(dimethylamino)pyrimidin-4-yl)-4-methylthiazol-2-yl)urea] were 46 nM, 5910 ± 180 nM and 8.34 ± 0.6 µM.
Take `CNc1nccc(-c2sc(NC(=O)Nc3ccc(CN4CCN(C)CC4)c(C(F)(F)F)c3)nc2C)n1` [Compound 32, 1-(4-Methyl-5-(2-(methylamino)-pyrimidin-4-yl)thiazol-2-yl)-3-(4-((4-methylpiperazin-1-yl)methyl)-3-(trifluoromethyl)phenyl)urea]: the IC50 in test [3] turned out to be 12 nM. Besides, the 50% growth inhibitory concentration (GI50) is below 1 nM in test [4] and 0.366 ± 0.09 µM in test [5].
Consider `CNc1nccc(-c2sc(NC(=O)Nc3ccc(C)cc3)nc2C)n1` [Compound 44, 1-(4-Methyl-5-(2-(methylamino)pyrimidin-4-yl)thiazol-2-yl)-3-(p-tolyl)urea], for which, in test [3], the IC50 stood at 7 nM. The GI50 in test [4] is 2600 ± 460 nM; in test [5] it was 2.37 ± 0.05 µM.
As for `CNc1nccc(-c2sc(NC(=O)Nc3ccc(Cl)c(C)c3)nc2C)n1` [Compound 30, 1-(4-Chloro-3-methylphenyl)-3-(4-methyl-5-(2-(methylamino)-pyrimidin-4-yl)thiazol-2-yl)urea], the IC50 in test [3] amounted to 8 nM. Also, the results for the 50% growth inhibitory concentration (GI50) in test [4] and in test [5] were 4390 ± 1020 nM and 2.35 ± 3.21 µM, respectively.
As for `Cc1nc(NC(=O)Nc2cccc(C(F)(F)F)c2)sc1-c1ccnc(N)n1` [Compound 51, 1-(5-(2-Aminopyrimidin-4-yl)-4-methylthiazol-2-yl)-3-(3-(trifluoromethyl)phenyl)urea], the IC50 in test [3] amounted to 60 nM. Moreover, the 50% growth inhibitory concentration (GI50) in test [4] came to 5710 ± 590 nM; in test [5] it was 4.32 ± 0.41 µM.
